In patent publication US5814627A, “3, 5-disubstituted and 3, 4, 5-trisubstituted 2-isoxazolines and isoxazoles, process for their preparation and their use as pharmaceuticals” (Hoechst Aktienegesellschaft, priority 1994, dated 1998):

Assays:
[1] = tested on: TNFα release from mononuclear cells; experiment: Test 4: cytokine release from LPS-stimulated mononuclear cells, TNFα; type: cell-based; conditions: Homo sapiens, read-out: Test 4 residual activity (TNFα release), percent of control
Protocol: Test 4. Stimulation of the cytokine release
Isolation of mononuclear cells from human blood
10 ml of human blood, stabilized with 1 ml of 3.8% sodium citrate solution, were diluted with 10 ml of PM16 (Serva, Heidelberg) and underlaid with 15 ml of Lymphoprep (Dr. Molter GmbH, Heidelberg). The samples were centrifuged, at room temperature for 40 minutes, at 400×g (1600 rpm, Minifuge 2, Heraeus, Osterode). The mononuclear cells are visible as a white ring at the Lymphoprep/plasma interface. This ring was carefully removed with a syringe, diluted with an equal volume of PM16, and centrifuged for 10 minutes at 400×g. The sediment was washed with approximately 10 ml of RPMI1640 (+300 mg/l L-glutamine, Gibco, Eggenstein) (Wallis, 1986). After the cells had been resuspended in approximately 1 ml of RPMI1640 (+300 mg/l L-glutamine+25 mM HEPES+100 μg/ml streptomycin+100 μg/ml penicillin), the cell density was determined using a Coulter Counter JT (Coulter Diagnostics) and adjusted to 5*10^6 /ml. Typically, the cells are composed of 90% lymphocytes and 10% monocytes.
230 μl of mononuclear cells were incubated, at 37° C.; 5% CO2 for 20-22 hours (5 hours in the case of IL-6), with 10 μl of test substance (10 μM in DMSO/water, 1/10) and 10 μl of lipopolysaccharide (LPS; 500 μg dissolved in 1 ml of DMSO and diluted 1/10 with water prior to beginning the test; from Salmonella abortus equi, Sigma, Deisenhofen). The samples were cooled down to 0° C. in an ice bath and centrifuged in a Sigma centrifuge (2 minutes; 2000 rpm). Aliquots of the supernatant are measured with an ELISA (Biermann, Bad Nauheim). The abbreviation IL stands for interleukin and TNF for tumor necrosis factor alpha.
(§1) The values in the table show the concentration of the test substance which was employed in μM and, besides this, the residual activity measured in percent based on the control, which was set to be 100%. The interleukin is additionally indicated in test 4.

[2] = tested on: cyclooxygenase-dependent thrombocyte aggregation; experiment: Test 5: Cyclooxygenase-dependent thrombocyte aggregation; type: cell-based, human; conditions: Homo sapiens, arachidonic acid as inducer, read-out: Test 5 residual activity (cyclooxygenase-dependent thrombocyte aggregation), percent of control
Summary of the method: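 Citrated human platelet-rich plasma was preincubated 10 min at 37 °C with test substance diluted 1:30 in 50 mM Tris-HCl pH 8.0, 90 mM NaCl. Aggregation was triggered with arachidonic acid (5 mg/ml, 20 μl) under 800 rpm stirring in an aggregometer. Values are tested concentration (μM) and residual activity as % of control.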

[3] = tested on: polymorphonuclear leucocytes (PMNL); experiment: Test 2: Release of oxygen radicals from human PMNL; type: cell-based; conditions: read-out: Test 2 residual activity (release of oxygen radicals), percent of control
Protocol: Isolation of polymorphonuclear leucocytes (PMNL) from human peripheral blood for carrying out tests 1 and 2 10 ml of human blood were diluted with 10 ml of HBSS (Serva) and underlaid with 15 ml of Lymphoprep (Dr. Molter GmbH, Heidelberg). The sample was then centrifuged for 25 minutes at 400×g (1600 revolutions per minute, Minifuge 2, Heraeus, Osterode). […] A white ring, composed of mononuclear cells, is located between these two phases. The lowermost phase is composed of erythrocytes which are covered with a white layer of PMNL. The uppermost phase, and also the Lymphoprep and the white ring, were carefully removed using a syringe. The remaining sediment was carefully resuspended in 15 ml of 3% dextran in PM16 (mw: 485,000, Sigma, Deisenhofen). The suspension was then left to stand at room temperature for one hour. During this time, the erythrocytes sedimented while the PMNL remained in the supernatant. The supernatant was removed, diluted with an approximately equal volume of PM16, and centrifuged for 15 minutes at 400×g. Should the PMNL sediment be heavily contaminated with erythrocytes, it is necessary to carry out a hypotonic lysis. To do this, the sediment was resuspended in 750 μl of water. After exactly 15 seconds, the suspension was diluted with approximately 7 ml of PM16 and centrifuged for 10 minutes at 400×g. If necessary, this lysis was repeated once more. Otherwise, the PMNL sediment was resuspended in a suitable medium.
The PMNL were resuspended (5·10^6 cells/ml) in Dulbecco's PBS, supplemented with 7.5 mM glucose. Care must be taken to ensure that the PMNL are free of erythrocytes. 100 μl of PMNL, 700 μl of PBS+glucose and 100 μl of cytochrome C (9.38 mg/ml of PBS+glucose) were mixed in a semi-microcuvette. 100 μl of PMNL, 500 μl of PBS+glucose, 100 μl of cytochalasin B ([…]), 100 μl of TNF (0.05 ng) and 100 μl of cytochrome C (9.38 mg/ml of PBS+glucose) were mixed for the fMLP-induced release of oxygen. Measurements were made in a double-beam photometer meter (Perkin-Elmer 552 S) at a wavelength of 550 nm. The measurement range is 0-1 extinction units. The cuvettes were temperature-equilibrated to 37° C. The reference cuvette additionally contained 10 μl of SOD (6 mg of SOD/ml of PBS+glucose). Following a preincubation of 5 minutes, the reaction is started with 100 μl of inducer. The reaction is started with 1·10^-7 mol of fMLP.
as §1

[4] = tested on: tumor cell line 20-10-5S (hybridoma cell line); experiment: Test 8: Inhibition of tumor cell proliferation; type: cell-based; conditions: 48 h + 16 h tritiated thymidine incorporation; 20-10-5S cells

Row | Structure (SMILES) | activity at 10 µM [1] [%] | activity at 100 µM [2] [%] | activity at 10 µM ([3]; 10 μM) [%] | activity at 25 µM ([3]; 25 μM) [%] | activity at 10 µM ([2]; 10 μM) [%] | IC50 [4] [µM] | activity at 5 µM [3] [%] | activity at 50 µM [3] [%]
1 | CC(C)(C)c1cc(C2=NOC(c3ccccn3)C2)cc(C(C)(C)C)c1O (stereo not shown) [Example 9] | 63 | 92 | – | – | – | – | – | –
2 | CC(O)c1cc(-c2cc(C(C)(C)C)c(O)c(C(C)(C)C)c2)no1 (stereo not shown) [Example 28] | – | – | 60 | 8 | 93 | < 5 | – | –
3 | CCOC(=O)CNC(=O)OCCCc1cc(-c2cc(C(C)(C)C)c(O)c(C(C)(C)C)c2)no1 [Example 41, N-(3-(4-Hydroxy-3,5-di-tert-butylphenyl)isoxazol-5-ylpropoxycarbonyl)glycine ethyl ester] | 89 | 95 | – | – | – | < 5 | 75 | 36
4 | CC(C)(C)c1cc(-c2cc(CNS(=O)(=O)C(F)(F)F)on2)cc(C(C)(C)C)c1O [Example 49, N-(3-(4-Hydroxy-3,5-di-tert-butylphenyl)isoxazol-5-ylmethyl)trifluoromethanesulfonamide] | 91 | – | – | – | – | 5 to 10 | 80 | 12
5 | CC(C)(C)c1cc(C2CC(CCC(=O)O)=NO2)cc(C(C)(C)C)c1O (stereo not shown) [Example 63, 5-(4-Hydroxy-3,5-di-tert-butylphenyl)-2-isoxazolin-3-ylpropionic acid] | – | – | – | – | – | – | – | 79
